Consider seven molecules from patent US7622266B2, “Identification of a synthetic ligand for retinoic acid receptor beta” (Institut Pasteur, priority 1987, dated 2009).

Test [1] has as its target T1, in vitro translated hap polypeptide (Homo sapiens, UniProt P10826).
T1 construct: made in house; host or cells: rabbit reticulocyte lysate (in vitro translation of T7 transcripts of pCOD20)
T1 sequence (P10826 1-448 isoform P10826-2): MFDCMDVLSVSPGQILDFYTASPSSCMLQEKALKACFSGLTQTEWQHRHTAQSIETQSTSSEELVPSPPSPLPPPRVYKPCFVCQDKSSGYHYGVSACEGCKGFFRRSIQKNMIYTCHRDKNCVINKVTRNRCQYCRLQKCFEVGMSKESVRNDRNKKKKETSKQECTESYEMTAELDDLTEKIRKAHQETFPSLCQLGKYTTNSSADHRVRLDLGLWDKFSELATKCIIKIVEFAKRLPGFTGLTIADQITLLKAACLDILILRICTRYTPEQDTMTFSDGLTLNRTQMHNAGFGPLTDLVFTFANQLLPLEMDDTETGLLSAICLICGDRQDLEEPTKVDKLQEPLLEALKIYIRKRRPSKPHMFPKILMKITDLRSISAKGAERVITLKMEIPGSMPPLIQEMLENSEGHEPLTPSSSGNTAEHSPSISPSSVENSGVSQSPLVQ
The experiment in a line: Hormone-binding assay with in vitro translated hap polypeptide. The conditions noted are these: reticulocyte lysate; for specific binding of (125I)-labelled thyroid hormone to in vitro translated hap polypeptide: 0° C., filtration; for binding of (3H)-labelled ligand to in vitro translated hap polypeptide: overnight 0° C., Dextran coated charcoal. The text has this: The ability to express functional receptors in vitro from cloned c-erbA/steroid receptor genes led to the use of an in vitro translation assay to identify a putative hap ligand.
The coding region of hap was cloned into pTZ18 plasmid vector to allow in vitro transcription with the T7 RNA polymerase and subsequent translation in reticulocyte lysates. More particularly, ^35S-methionine-labelled products synthesized using T7 polymerase-catalysed RNA transcripts were separated on a 12% SDS-polyacrylamide gel, which was fluorographed. (DMSO-PPO). The lanes in FIG. 5 are as follows:
pCOD20 and pCOD14 were linearized with HindIII. Capped mRNA was generated using 5 ug of DNA, 5 uM rNTP, 25 mM DTT, 100 U RNAsin (Promega), 50 U T7 Pol (Genofit) in 40 mM Tris pH 8, 8mM MgCl2, 2 mM spermidine, 50 mM NaCl, in 100 ul at 37° C. Capping was performed by omitting GTP and adding CAP (m^7 G (5′) ppp (5′) G) (Pharmacia) for the 15 first minutes of the reaction.
After at least 2 h of incubation at 0° C., free was separated from bound by filtration through millipore HAWP 02500 filters using 10 ml of ice cold buffer. For testosterone, retinol, retinoic acid 10 ul of lysate were added to 45 lambda of 20 mM Tris pH 7.3, 1 mM EDTA, 50 mM NaCl, 2 mM beta-mercaptoethanol and […], […] or […] (81 ci/mmol; 60 Ci/mmol; 46 Ci/mmol; Amersham). After an overnight incubation at 0° C. free was separated from bound by Dextran coated charcoal (0.5% Norit A−0.05% T70) and centrifugation. All experiments were performed in duplicates and parallel experiments were performed with 100 fold excess corresponding cold hormone.

The test system of test [2] is nuclear extracts from HeLa cells. The experiment in a line: T3 binding positive control with HeLa nuclear extracts. From the text:
The results were-negative as well when the experiment was repeated with (3H)-retinol, -retinoic acid, and -testosterone, which represent three putative ligands for hap whose receptors have not yet been cloned. Although it cannot excluded that hap may encode a hormone independent transcriptional activator, it is more likely that hap product, i.e. the hap protein, is α receptor for a presently unidentified hormone.

The subject of test [3] is RAR β mRNAs in PLC/PRF/5 cells. The class given is cell-based, human. Here is the method:
(§1) More particularly, semi-confluent cells were grown for 6 hr in charcoal stripped medium and retinoic acid was then added to the medium at various concentrations (10^−10 M to 10^−6 M) for 4 hr. Control cells were treated with ethanol (E). Northern-blotting was performed as described in connection with FIG. 9, except that 30 μg of total RNA was used.
(§2) Exposure time was 12 hr for the β probe (FIG. 10B, lower panel) and four days for the α probe (FIG. 10B, upper panel).
(§3) Northern-blotting was carried on using 30 ug of total RNA. […] Exposure times were the same as for the experiments in FIG. 10.
(§4) Human tissue samples were obtained from early autopsies and kept at −80° C. prior to extraction. The HEPG 2 and PLC/PRF/5 hepatoma cell-lines were grown in Dulbecco's modified Eagle's medium with 10% fetal calf serum, glutamine, and antibiotics, in 5% CO2.
(§5) The RNA was prepared by the hot phenol procedure (Maniatis et al., 1982). Poly(A)^+ mRNA was prepared by oligo(dT)-cellulose ilchromatography. For Northern-blot analysis, total RNA (30 μg) or poly(A)^+ mRNA (5 μg) was denatured by glyoxal and fractionated on a 1.2% agarose gel (Maniatis et al., 1982). The nucleic acid was transferred to nylon membranes (Amersham) by blotting and attached by UV exposure plus baking.
(§6) The two cDNA inserts were subcloned into M13 and used to generate high specific activity (greater than 10^9 c.p.m./μg) single-stranded probes by elongation of a sequencing primer with ^32P labelled dTTP (3000 Ci/mmol) and unlabelled nucleotides by Klenow polymerase. The resulting double-stranded DNA was digested using a unique site in the vector, fractioned on a urea/acrylamide sequencing gel, and the labelled single-stranded insert electroeluted. These probes (5×10^6 cpm/ml) were hybridized to the filters in 7% (w/v) sodium dodecyl sulfate (SDS), 0.5 M NaPO4 pH 6.5, 1 mM ethylenediaminetetraacetate (EDTA), and 1 mg/ml bovine serum albumin (BSA) at 68° C. overnight. The filters were washed in 1% SDS, 50 mM NaCl, 1 mM EDTA at 68° C. for 10 min and autoradiographed at −70° C. using Kodak XAR films and intensifying screens. A mouse β actin probe was used to rehybridize the filters and check that all lanes contained equal amounts of RNA.
The relative intensity of hybridization signals in Northern-blotting and run-on experiments was estimated using a Hoefer scanning densitometer and the appropriate computer program.

Test [4] deals with T2, hap-ER chimaeric receptor (Homo sapiens, UniProt P10826, A104S/D127T/F149Y/F89A/G110A/H125P/I121D/K118G/K128N/K94Y/M120N/N119H/N129Q/N133D/N138K/Q146R/Q92N/R113K/R126A/R139S/S103W/S95A/T123M/T136R/V131T/V135N/Y142A).
T2 construct: expressed in transfected cells
T2 sequence (P10826 1-448 isoform P10826-2 F82A/Q85N/K87Y/S88A/S96W/A97S/G103A/R106K/K111G/N112H/M113N/I114D/T116M/H118P/R119A/D120T/K121N/N122Q/V124T/N126D/V128N/T129R/N131K/R132S/Y135A/Q139R/F142Y): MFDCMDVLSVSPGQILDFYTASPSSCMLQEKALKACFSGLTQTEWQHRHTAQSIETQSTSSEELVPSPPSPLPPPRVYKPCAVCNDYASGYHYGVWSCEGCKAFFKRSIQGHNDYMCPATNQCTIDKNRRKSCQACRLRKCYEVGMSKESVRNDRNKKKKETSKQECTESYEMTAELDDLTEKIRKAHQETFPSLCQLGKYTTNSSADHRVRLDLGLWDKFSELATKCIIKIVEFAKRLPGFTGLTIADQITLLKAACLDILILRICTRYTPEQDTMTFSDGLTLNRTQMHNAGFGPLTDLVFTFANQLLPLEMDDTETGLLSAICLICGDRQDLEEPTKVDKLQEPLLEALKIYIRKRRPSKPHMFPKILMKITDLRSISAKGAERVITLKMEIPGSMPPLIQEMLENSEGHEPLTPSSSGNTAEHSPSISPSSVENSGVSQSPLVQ
The experiment in a line: hap-ER chimaera trans-activation of oestrogen-responsive reporter gene (vit-tk-CAT). The class given is cell-based. Conditions: RA at physiological concentrations. Here is the method:
To test the possibility that the hap protein might also be a retinoid receptor, a chimaeric receptor was created by replacing the putative DNA binding domain of hap with that of the human oestrogen receptor (ER). The resulting hap-ER chimaera was then tested for its ability to trans-activate an oestrogen-responsive reporter gene (vit-tk-CAT) in the presence of possible receptor ligands. […] See Nature, 332:850-853 (1988).

In test [5] the test system is RAR α mRNAs in PLC/PRF/5 cells. As to the kind of experiment: Northern blot of RAR α mRNAs in PLC/PRF/5 cells. The class given is cell-based, human. Conditions: RA up to 10^−6 M. Here is the method: as §1, §2, §3, §4
The RNA was prepared by the hot phenol procedure (Maniatis et al., 1982). Poly(A)^+ mRNA was prepared by oligo(dT)-cellulose ilchromatography. For Northern-blot analysis, total RNA (30 μg) or poly(A)^+ mRNA (5 μg) was denatured by glyoxal and fractionated on a 1.2% agarose gel (Maniatis et al., 1982). The nucleic acid was transferred to nylon membranes (Amersham) by blotting and attached by UV exposure plus baking. […]

For test [6], the system named is RAR β mRNAs in HEPG2 hepatoma cell-line. The experiment in a line: Northern blot of RAR β mRNAs in HEPG2 cells. The class given is cell-based, human. The protocol: as §4, §5
as §6, with “The filters were washed in 1% SDS, 50 mM NaCl, 1 mM EDTA at 68° C. for 10 min and autoradiographed at −70° C. using Kodak XAR films and intensifying screens. A mouse β actin probe was used to rehybridize the filters and check that all lanes contained equal amounts of RNA.” left out

Test [7] concerns transglutaminase expression in HL60 cells. Conditions: read-out: ED 50 of RA-dependent transglutaminase expression; cited from earlier work.
Another test relates to RAR β. The conditions noted are these: cited from earlier work.

Numbered stars: 1 amine (or outer) side, 2 acyl side, 3 side chain; on linkers, the order of the positions; unused ones are H or OH. Bridge positions count the residues as written; N and C are the ends. Square brackets hold non-standard residues; d marks the D form. Peptide text beside a SMILES is read from it. I, II: the chains in the order shown. Actinocin(9to1) = Cc1c2oc3c(C)ccc(C(=O)[*:1])c3nc-2c(C(=O)[*:2])c(N)c1=O; NMeV = CN[C@H](C(=O)O)C(C)C; Sar = CNCC(=O)O

Take `N[C@@H](Cc1cc(I)c(Oc2cc(I)c(O)c(I)c2)c(I)c1)C(=O)O` [T4, thyroxine]: in test [1], the “specific binding of (125I)-labelled thyroid hormone to in vitro translated hap polypeptide” value is reported as “No specific fixation”.

On to `N[C@@H](Cc1ccc(Oc2cc(I)c(O)c(I)c2)c(I)c1)C(=O)O` [reverse T3, 3,3′, 5′-triiodo-thyronine], for which, in test [1], the “specific binding of (125I)-labelled thyroid hormone to in vitro translated hap polypeptide” value is on record as “No specific fixation”.

On to `CC1=C(/C=C/C(C)=C/C=C/C(C)=C/CO)C(C)(C)CCC1` [retinol], for which, in test [1], the “binding of (3H)-labelled ligand to in vitro translated hap polypeptide” value is recorded as “negative”.

In the case of `N[C@@H](Cc1cc(I)c(Oc2ccc(O)c(I)c2)c(I)c1)C(=O)O` [T3, triiodothyronine], in test [2], the “binding to nuclear extracts from HeLa cells” value is “detected”.

On to `Cc1c2oc3c(C)ccc(C(=O)N[C@@H]4C(=O)N[C@H](C(C)C)C(=O)N5CCC[C@H]5C(=O)N(C)CC(=O)N(C)[C@@H](C(C)C)C(=O)O[C@@H]4C)c3nc-2c(C(=O)N[C@@H]2C(=O)N[C@H](C(C)C)C(=O)N3CCC[C@H]3C(=O)N(C)CC(=O)N(C)[C@@H](C(C)C)C(=O)O[C@@H]2C)c(N)c1=O` [actinomycin D] (I: T[dV]P[Sar][NMeV] / II: T[dV]P[Sar][NMeV]; ester I:1-I:C, II:1-II:C; linker I:N-II:N via Actinocin(9to1)), for which the “effect of inhibitor on the RA-induced increase in the levels of RAR β transcripts” value in test [3] (RA 10^−6M, CH 10 μg/ml or AC 5 μg/ml, 4 hr) is recorded as “abolished”.

Take `CC1=C(/C=C/C(C)=C/C=C/C(C)=C/C(=O)O)C(C)(C)CCC1` [RA, All-trans-retinoic acid]: in test [4], the “inducing the expression of the reporter gene by the hap-ER chimaeric receptor” value is given as “effective”. Besides, in test [3] (RA 10^−6 M), the “latency of induction of RAR β mRNAs” value is given as “one” and the “time after which induction of RAR β mRNAs is complete” value is recorded as “four”. Also, the “magnitude of the RA-induced upregulation of RAR β mRNAs” value in test [3] (densitometry of Northern blot, 4 hr) amounted to […]. Further, the “RA concentration at which stimulatory effect on RAR β mRNAs is already evident” value in test [3] (dose-response 10^−10 M to 10^−6 M, 4 hr) is […]. Moreover, the “effect on the level of RAR α mRNAs” value in test [5] is “no effect”. Besides, in test [6], the “RA-induced stimulation of the levels of RAR β mRNAs” value is listed as 50 fold. Moreover, the EC50 in test [7] was 50 nM. Also, in the test with RAR β (RAR-β versus RAR α), the “RA concentration for activation of transcription by RAR-β lower than for RAR α” value is recorded as […]. Besides, the EC50 in the test with RAR β (read-out: ED 50 of RA-dependent gene transactivation, RAR β) was […].

For `C[C@]12CC[C@H]3[C@@H](CCC4=CC(=O)CC[C@@]43C)[C@@H]1CC[C@@H]2O` [testosterone], in test [1], the “binding of (3H)-labelled ligand to in vitro translated hap polypeptide” value is recorded as “negative”.
